Laboratory results: patent US20260209223A1, “FGFR3 INHIBITOR COMPOUNDS” (TYRA BIOSCIENCES, INC., priority 2022, published 2026)

What was measured:
[1] = molecular target: T1, FGFR1 (Homo sapiens, UniProt P11362); test: Kinase binding assay (Kd), kinase-tagged T7 phage, affinity beads, qPCR; conditions: in vitro binding assay, 11-point 3-fold dilution series
T1 construct: made in house; host or cells: E. coli (BL21-derived) infected with T7 phage
Procedure: (§1) Kinase-tagged T7 phage strains were prepared in an E. coli host derived from the BL21 strain. E. coli were grown to log-phase and infected with T7 phage and incubated with shaking at 32° C. until lysis. The lysates were centrifuged and filtered to remove cell debris. Streptavidin-coated magnetic beads were treated with biotinylated small molecule ligands for 30 minutes at room temperature to generate affinity resins for kinase assays. The liganded beads were blocked with excess biotin and washed with blocking buffer SeaBlock (Pierce), 1% BSA, 0.05% Tween 20, 1 mM DTT to remove unbound ligand and to reduce non-specific binding. Binding reactions were assembled by combining kinases, liganded affinity beads, and test compounds in 1× binding buffer (20% SeaBlock, 0.17×PBS, 0.05% Tween 20, 6 mM DTT).
(§2) Test compounds were prepared as 111× stocks in 100% DMSO. Kds were determined using an 11-point 3-fold compound dilution series with three DMSO control points. All compounds for Kd measurements are distributed by acoustic transfer (non-contact dispensing) in 100% DMSO. The compounds were then diluted directly into the assays such that the final concentration of DMSO was 0.9%. All reactions performed in polypropylene 384-well plate. Each was a final volume of 0.02 ml. The assay plates were incubated at room temperature with shaking for 1 hour and the affinity beads were washed with wash buffer (1×PBS, 0.05% Tween 20). The beads were then re-suspended in elution buffer (1×PBS, 0.05% Tween 20, 0.5 μM non-biotinylated affinity ligand) and incubated at room temperature with shaking for 30 minutes. The kinase concentration in the eluates was measured by qPCR.
(§3) Binding constants were calculated with a standard dose-response curve using the Hill equation: […]
(§4) The Hill Slope was set to −1. Curves were fitted using a non-linear least square fit with the Levenberg-Marquardt algorithm.

[2] = molecular target: T2, FGFR2 (Homo sapiens, UniProt P21802); test: as above; conditions: in vitro binding assay, 11-point 3-fold dilution series
T2 construct: made in house; host or cells: E. coli (BL21-derived) infected with T7 phage
T2 sequence (P21802 22-821): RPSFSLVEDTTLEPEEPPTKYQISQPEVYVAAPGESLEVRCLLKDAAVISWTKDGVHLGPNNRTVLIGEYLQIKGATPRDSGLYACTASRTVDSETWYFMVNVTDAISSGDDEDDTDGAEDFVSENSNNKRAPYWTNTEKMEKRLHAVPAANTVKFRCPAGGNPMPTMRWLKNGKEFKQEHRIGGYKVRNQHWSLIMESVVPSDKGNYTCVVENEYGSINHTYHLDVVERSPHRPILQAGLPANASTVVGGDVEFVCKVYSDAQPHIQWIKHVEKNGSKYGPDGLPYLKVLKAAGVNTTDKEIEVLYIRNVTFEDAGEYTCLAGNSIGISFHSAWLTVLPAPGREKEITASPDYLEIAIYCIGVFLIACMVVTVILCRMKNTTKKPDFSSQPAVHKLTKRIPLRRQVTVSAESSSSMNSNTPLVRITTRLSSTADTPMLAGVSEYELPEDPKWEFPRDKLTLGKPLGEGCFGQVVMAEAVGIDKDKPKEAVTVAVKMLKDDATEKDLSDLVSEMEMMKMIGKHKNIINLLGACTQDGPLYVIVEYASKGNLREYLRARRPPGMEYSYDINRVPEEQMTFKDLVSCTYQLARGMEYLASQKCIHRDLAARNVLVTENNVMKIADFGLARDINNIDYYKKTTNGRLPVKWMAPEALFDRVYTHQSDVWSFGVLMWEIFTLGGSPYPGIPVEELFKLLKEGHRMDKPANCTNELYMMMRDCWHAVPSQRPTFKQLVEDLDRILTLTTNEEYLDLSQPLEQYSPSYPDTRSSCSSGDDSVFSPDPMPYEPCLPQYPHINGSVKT
Procedure: as §1, §2, §3, §4

[3] = molecular target: T3, FGFR3 (Homo sapiens, UniProt P22607); test: as above; conditions: in vitro binding assay, 11-point 3-fold dilution series
T3 construct: made in house; host or cells: E. coli (BL21-derived) infected with T7 phage
T3 sequence (P22607 23-806): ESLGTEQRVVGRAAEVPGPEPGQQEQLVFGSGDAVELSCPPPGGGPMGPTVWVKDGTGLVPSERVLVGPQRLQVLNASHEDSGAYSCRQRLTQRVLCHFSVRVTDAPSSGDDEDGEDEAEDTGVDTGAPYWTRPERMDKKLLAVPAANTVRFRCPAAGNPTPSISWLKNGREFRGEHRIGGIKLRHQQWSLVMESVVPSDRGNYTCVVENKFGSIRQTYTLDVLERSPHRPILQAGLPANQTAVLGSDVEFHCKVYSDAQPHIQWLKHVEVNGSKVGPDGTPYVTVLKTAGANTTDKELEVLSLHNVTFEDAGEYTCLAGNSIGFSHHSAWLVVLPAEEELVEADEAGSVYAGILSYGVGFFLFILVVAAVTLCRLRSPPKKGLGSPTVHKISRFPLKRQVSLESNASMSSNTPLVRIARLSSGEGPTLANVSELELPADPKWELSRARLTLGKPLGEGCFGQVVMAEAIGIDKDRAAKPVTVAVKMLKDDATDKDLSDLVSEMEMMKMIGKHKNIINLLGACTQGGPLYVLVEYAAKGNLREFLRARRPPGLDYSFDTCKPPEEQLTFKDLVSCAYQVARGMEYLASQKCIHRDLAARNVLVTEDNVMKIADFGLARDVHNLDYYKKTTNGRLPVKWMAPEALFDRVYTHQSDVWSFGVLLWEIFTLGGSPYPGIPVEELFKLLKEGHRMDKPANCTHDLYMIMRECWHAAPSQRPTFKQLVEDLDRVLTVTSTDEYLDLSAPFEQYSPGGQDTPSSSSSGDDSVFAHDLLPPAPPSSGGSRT
Procedure: as §1, §2, §3, §4

[4] = molecular target: T4, FGFR3 (V555M) (Homo sapiens, UniProt P22607, V555M); test: as above; conditions: in vitro binding assay, 11-point 3-fold dilution series
T4 construct: made in house; host or cells: E. coli (BL21-derived) infected with T7 phage
T4 sequence (P22607 23-806 V555M): as the sequence (P22607 23-806) above, with V533M counted along it
Procedure: as §1, §2, §3, §4

[5] = molecular target: T5, FGFR4 (Homo sapiens, UniProt P22455); test: as above; conditions: in vitro binding assay, 11-point 3-fold dilution series
T5 construct: made in house; host or cells: E. coli (BL21-derived) infected with T7 phage
T5 sequence (P22455 22-802): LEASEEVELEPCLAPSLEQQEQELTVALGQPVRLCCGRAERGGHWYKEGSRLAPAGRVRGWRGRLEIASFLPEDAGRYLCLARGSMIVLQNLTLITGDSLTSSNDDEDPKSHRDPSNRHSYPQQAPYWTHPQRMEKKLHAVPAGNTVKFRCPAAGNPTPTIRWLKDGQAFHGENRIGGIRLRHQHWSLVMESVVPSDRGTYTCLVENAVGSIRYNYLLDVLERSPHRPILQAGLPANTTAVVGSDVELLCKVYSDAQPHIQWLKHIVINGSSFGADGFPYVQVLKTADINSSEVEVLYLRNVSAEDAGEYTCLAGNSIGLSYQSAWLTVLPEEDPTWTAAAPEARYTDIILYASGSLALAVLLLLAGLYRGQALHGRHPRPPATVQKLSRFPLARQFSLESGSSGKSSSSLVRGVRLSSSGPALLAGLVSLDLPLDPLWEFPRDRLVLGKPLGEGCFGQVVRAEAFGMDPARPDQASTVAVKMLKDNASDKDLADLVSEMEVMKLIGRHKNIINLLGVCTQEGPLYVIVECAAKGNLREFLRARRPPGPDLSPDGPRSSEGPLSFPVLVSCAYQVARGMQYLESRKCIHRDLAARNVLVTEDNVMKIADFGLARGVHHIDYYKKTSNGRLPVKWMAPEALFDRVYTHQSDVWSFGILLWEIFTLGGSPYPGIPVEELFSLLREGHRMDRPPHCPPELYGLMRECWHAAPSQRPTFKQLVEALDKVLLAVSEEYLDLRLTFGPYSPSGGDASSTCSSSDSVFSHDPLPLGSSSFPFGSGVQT
Procedure: as §1, §2, §3, §4

[6] = molecular target: T6, Ba/F3 BCR-FGFR1 (Homo sapiens, UniProt P11362); test: Ba/F3 cell viability assay (CellTiter-Glo 2.0); format: cell-based; conditions: Ba/F3 cell data, BCR-FGFR1 fusion, 48 hours
T6 construct: BCR (fusion partner); host or cells: Ba/F3; the other entry of the earlier key: BCR (P11274, Breakpoint cluster region protein)
T6 sequence (P11362 478-767 limits assumed): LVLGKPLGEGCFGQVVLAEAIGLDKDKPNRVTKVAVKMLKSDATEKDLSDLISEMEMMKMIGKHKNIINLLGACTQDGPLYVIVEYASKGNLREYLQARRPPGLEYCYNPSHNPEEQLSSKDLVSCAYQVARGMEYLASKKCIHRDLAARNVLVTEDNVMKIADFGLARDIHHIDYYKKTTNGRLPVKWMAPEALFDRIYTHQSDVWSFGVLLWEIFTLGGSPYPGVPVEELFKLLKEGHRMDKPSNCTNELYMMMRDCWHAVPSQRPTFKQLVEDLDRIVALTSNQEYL

[7] = molecular target: T7, Ba/F3 BCR-FGFR2 (Homo sapiens, UniProt P21802); test: Ba/F3 cell viability assay (CellTiter-Glo 2.0); format: cell-based; conditions: Ba/F3 cell data, BCR-FGFR2 fusion, 48 hours
T7 construct: BCR (fusion partner); host or cells: Ba/F3; the other entry of the earlier key: BCR (P11274, Breakpoint cluster region protein)
T7 sequence (P21802 481-770 limits assumed): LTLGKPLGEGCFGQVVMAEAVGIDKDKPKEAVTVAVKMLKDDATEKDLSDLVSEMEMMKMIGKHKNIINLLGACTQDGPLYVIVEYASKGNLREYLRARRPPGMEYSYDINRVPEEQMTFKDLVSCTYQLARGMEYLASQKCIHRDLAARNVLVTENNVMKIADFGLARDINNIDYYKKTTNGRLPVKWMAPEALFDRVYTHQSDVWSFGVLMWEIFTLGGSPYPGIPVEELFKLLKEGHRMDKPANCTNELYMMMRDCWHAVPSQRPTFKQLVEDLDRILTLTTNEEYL

[8] = molecular target: T8, Ba/F3 FGFR3-BAIAP2L1 (Homo sapiens, UniProt P22607); test: Ba/F3 cell viability assay (CellTiter-Glo 2.0); format: cell-based; conditions: Ba/F3 cell data, FGFR3-BAIAP2L1 fusion, 48 hours
T8 construct: BAIAP2L1 (fusion partner, Q9UHR4 if human); host or cells: Ba/F3; the other entry of the earlier key: BAIAP2L1 (Q9UHR4, BAR/IMD domain-containing adapter protein 2-like 1)
T8 sequence (P22607 397-758 limits assumed): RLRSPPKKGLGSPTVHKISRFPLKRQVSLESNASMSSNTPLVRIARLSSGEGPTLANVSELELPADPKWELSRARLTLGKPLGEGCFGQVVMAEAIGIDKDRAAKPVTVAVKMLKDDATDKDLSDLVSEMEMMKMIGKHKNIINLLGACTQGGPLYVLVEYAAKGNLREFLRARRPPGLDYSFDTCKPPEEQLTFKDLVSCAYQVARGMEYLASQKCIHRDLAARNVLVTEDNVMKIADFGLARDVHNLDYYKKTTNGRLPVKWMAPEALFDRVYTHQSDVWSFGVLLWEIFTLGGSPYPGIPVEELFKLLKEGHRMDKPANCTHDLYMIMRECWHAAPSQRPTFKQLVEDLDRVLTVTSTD

[9] = molecular target: T9, Ba/F3 ETV5-FGFR4 (Homo sapiens, UniProt P22455); test: Ba/F3 cell viability assay (CellTiter-Glo 2.0); format: cell-based; conditions: Ba/F3 cell data, ETV5-FGFR4 fusion, 48 hours
T9 construct: host or cells: Ba/F3; the other entry of the earlier key: ETV5 (P41161, ETS translocation variant 5)
T9 sequence (P22455 467-755 limits assumed): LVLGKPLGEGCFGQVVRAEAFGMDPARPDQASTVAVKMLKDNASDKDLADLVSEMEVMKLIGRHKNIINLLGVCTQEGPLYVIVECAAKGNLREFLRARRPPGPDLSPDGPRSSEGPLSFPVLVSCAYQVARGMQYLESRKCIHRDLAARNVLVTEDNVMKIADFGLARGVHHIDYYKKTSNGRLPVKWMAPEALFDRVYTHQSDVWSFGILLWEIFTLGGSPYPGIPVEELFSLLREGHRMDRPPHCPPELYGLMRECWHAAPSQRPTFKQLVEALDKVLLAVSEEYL
From the text: Experimental Purpose: Recombinant kinase fusions are transduced into parental Ba/F3, which becomes dependent upon this constitutive kinase activity for IL3-independent survival. Inhibition of kinase activity leads to cell death, which is monitored using CellTiter-Glo® 2.0 (Promega) which measures intracellular ATP concentration that in turn serves as a marker for viability. BCR-FGFR1 Ba/F3, BCR-FGFR2 and FGFR3-BAIAP2L1 Ba/F3 were obtained from Advanced Cellular Dynamics (Seattle, WA). ETV6-FGFR4 was obtained from Kyinno (Waltham, MA).
Cell Viability Assay Procedure: Cell Titer-Glo® 2.0 Luminescent cell viability assay reagent was purchased from Promega (Madison, WI). Ba/F3 cell lines were cultured in RPMI1640 media supplemented with 10% fetal bovine serum. Cultures were maintained at 37° C. in a humidified atmosphere of 5% CO2 and 95% air.
Cells were plated in 96-well clear bottom/white plates (Corning #3903) at 10,000 cells/well in 100 μl of media, incubated overnight. The next day, test compound DMSO stock solutions were made at 10 mM and 2 μM final concentration. Compounds were then added to cells in a 9-dose, 10-fold dilution series starting at 30 μM with an HP 300e Digital Dispenser (each dose was applied in triplicate). DMSO was backfilled to each well up to 301 nL total volume of test compound+DMSO, and a total of 301 nL DMSO was added to a control/no test compound well in triplicate. The cells in cell culture plates were incubated with the compounds at 37° C. and 5% CO2 for 48 hours. Then 50 μl of Cell Titer Glo 2.0 reagent was added to each well of the cell culture plates. The contents were covered from light and mixed on an orbital shaker at room temperature for 10 min. Luminescence was recorded by a Synergy H1 Microplate Reader (Biotek, Winooski, VT). Cells were assessed as a percentage of DMSO only treated control cells. Curves were plotted and IC50 values were calculated using the GraphPad Prism 8 program based on a sigmoidal dose-response equation (4 parameter).

[10] = test system: KG-1; test: Cancer cell line cell viability assay (CellTiter-Glo 2.0); format: cell-based; conditions: Homo sapiens; KG-1 (FGFR1-fusion) cell viability, 72 hours
From the text: (§5) Experimental Purpose: To detect the change of intracellular ATP by Cell Titer-Glo® and to evaluate the inhibitory effect of the compounds on cancer cell lines by determining the in vitro IC50 value of the compounds.
(§6) Cell Titer-Glo® 2.0 Luminescent cell viability assay reagent was purchased from Promega (Madison, WI). RT112/84 and KG-1 cell lines were purchased from American Type Culture Collection (Manassas, VA). UM-UC-14 cell line was purchased from Sigma (St. Louis, MO). RT112/84, UM-UC-14, and KG-1 cells were cultured in RPMI1640 media supplemented with 10% fetal bovine serum. Cultures were maintained at 37° C. in a humidified atmosphere of 5% CO2 and 95% air.
(§7) Cell Viability Assay Procedure: Cells were plated in 96-well clear bottom/white plates (Corning #3903) at 10,000 cells/well in 100 μl of media, incubated overnight. The next day, test compound DMSO stock solutions were made at 10 mM and 2 μM final concentration.
(§8) Compounds were then added to cells in a 9-dose, […] dilution series starting at 30 μM with an HP 300e Digital Dispenser (each dose was applied in triplicate). DMSO was backfilled to each well up to 301 nL total volume of test compound+DMSO, and a total of 301 nL DMSO was added to a control/no test compound well in triplicate. The cells in cell culture plates were incubated with the compounds at 37° C. and 5% CO2 for 72 hours. Then 50 μl of Cell Titer Glo 2.0 reagent was added to each well of the cell culture plates. The contents were covered from light and mixed on an orbital shaker at room temperature for 10 min.
(§9) Luminescence was recorded by a Synergy H1 Microplate Reader (Biotek, Winooski, VT). Cells were assessed as a percentage of DMSO only treated control cells. Curves were plotted and IC50 values were calculated using the GraphPad Prism 8 program based on a sigmoidal dose-response equation (4 parameter).

[11] = test system: RT112/84; test: as above; format: cell-based; conditions: Homo sapiens; RT112/84 (FGFR3-fusion) cell viability, 72 hours
From the text: as §5, §6, §7, §8, §9

[12] = test system: KatoIIII; test: as above; format: cell-based; conditions: 72 hours

T1 sequence (P11362 22-822): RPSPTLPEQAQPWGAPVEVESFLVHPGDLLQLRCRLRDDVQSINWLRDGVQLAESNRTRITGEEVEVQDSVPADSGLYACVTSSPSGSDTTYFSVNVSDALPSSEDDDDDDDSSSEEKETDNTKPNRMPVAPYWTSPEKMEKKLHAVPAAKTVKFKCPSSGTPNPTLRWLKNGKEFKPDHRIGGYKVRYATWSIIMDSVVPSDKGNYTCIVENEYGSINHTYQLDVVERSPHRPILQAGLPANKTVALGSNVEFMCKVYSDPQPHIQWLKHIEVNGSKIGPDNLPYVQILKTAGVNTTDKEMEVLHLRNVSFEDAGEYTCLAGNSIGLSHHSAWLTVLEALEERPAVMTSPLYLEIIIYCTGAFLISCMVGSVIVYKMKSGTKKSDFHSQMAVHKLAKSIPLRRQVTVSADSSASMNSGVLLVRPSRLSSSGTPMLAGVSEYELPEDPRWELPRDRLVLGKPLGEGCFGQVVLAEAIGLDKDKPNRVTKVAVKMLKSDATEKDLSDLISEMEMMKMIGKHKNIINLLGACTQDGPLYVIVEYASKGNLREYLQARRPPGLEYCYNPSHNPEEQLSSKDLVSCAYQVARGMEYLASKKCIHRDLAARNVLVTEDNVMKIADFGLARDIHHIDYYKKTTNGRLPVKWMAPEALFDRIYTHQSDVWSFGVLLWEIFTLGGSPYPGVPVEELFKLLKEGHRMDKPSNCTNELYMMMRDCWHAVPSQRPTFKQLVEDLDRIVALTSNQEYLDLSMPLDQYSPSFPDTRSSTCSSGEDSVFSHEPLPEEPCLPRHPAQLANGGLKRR

Row | Kd [1] | Kd [2] | Kd [3] | Kd [4] | Kd [5] | IC50 [10] | IC50 [11] | IC50 [12] | Compound | Kd [6] | Kd [7] | Kd [8] | Kd [9]
1 | 0.1 to 100 nM | 0.1 to 100 nM | 0.1 to 100 nM | 0.1 to 100 nM | 0.1 to 100 nM | ≥ 1000 nM | ≥ 1000 nM | ≥ 1000 nM | C=CC(=O)N1CC(C(=O)N2CCC(n3nnc(-c4cc(O[C@H](CO)c5ccccn5)c5c(C#N)cnn5c4)c3C)CC2)C1 (single isomer, unassigned) [Example 18] | ≥ 1000 nM | ≥ 1000 nM | 250 to 1000 nM | ≥ 1000 nM
2 | 0.1 to 100 nM | 0.1 to 100 nM | 0.1 to 100 nM | 0.1 to 100 nM | 0.1 to 100 nM | 250 to 1000 nM | 100 to 250 nM | ≥ 1000 nM | C=CC(=O)N1CC(F)(C(=O)N2CCC(n3nnc(-c4cc(O[C@H](CO)c5ccccn5)c5c(C#N)cnn5c4)c3C)CC2)C1 (single isomer, unassigned) [Example 20] | ≥ 1000 nM | ≥ 1000 nM | 0.1 to 100 nM | ≥ 1000 nM
3 | 250 to 1000 nM | 250 to 1000 nM | 100 to 250 nM | 250 to 1000 nM | ≥ 1000 nM | – | – | – | C=CC(=O)N1CCC2(CC1)CC(n1nnc(-c3cc(O[C@@H](CO)c4ccc(F)cn4)c4c(C#N)cnn4c3)c1C)C2 [Example 12, (R)-6-(1-(7-acryloyl-7-azaspiro[3.5]nonan-2-yl)-5-methyl-1H-1,2,3-triazol-4-yl)-4-(1-(5-fluoropyridin-2-yl)-2-hydroxyethoxy)pyrazolo[1,5-a]pyridine-3-carbonitrile] | ≥ 1000 nM | ≥ 1000 nM | 250 to 1000 nM | ≥ 1000 nM
4 | 0.1 to 100 nM | 0.1 to 100 nM | 0.1 to 100 nM | 0.1 to 100 nM | 0.1 to 100 nM | – | – | – | C=CC(=O)N1CCC2(CC1)CC(n1ncc(-c3cc(OC(CO)c4cncc5ccccc45)c4c(C#N)cnn4c3)c1C)C2 (stereo not drawn) [Example 15, 6-(1-(7-acryloyl-7-azaspiro[3.5]nonan-2-yl)-5-methyl-1H-pyrazol-4-yl)-4-(2-hydroxy-1-(isoquinolin-4-yl)ethoxy)pyrazolo[1,5-a]pyridine-3-carbonitrile] | 100 to 250 nM | 100 to 250 nM | 0.1 to 100 nM | 250 to 1000 nM
5 | ≥ 1000 nM | 250 to 1000 nM | 100 to 250 nM | 250 to 1000 nM | ≥ 1000 nM | – | – | – | C=CC(=O)N1CC(OC)(C(=O)N2CCC(n3nnc(-c4cc(O[C@@H](CO)c5ccccn5)c5c(C#N)cnn5c4)c3C)CC2)C1 [Example 21, (R)-6-(1-(1-(1-acryloyl-3-methoxyazetidine-3-carbonyl)piperidin-4-yl)-5-methyl-1H-1,2,3-triazol-4-yl)-4-(2-hydroxy-1-(pyridin-2-yl)ethoxy)pyrazolo[1,5-a]pyridine-3-carbonitrile] | ≥ 1000 nM | ≥ 1000 nM | ≥ 1000 nM | ≥ 1000 nM
6 | 0.1 to 100 nM | 0.1 to 100 nM | 0.1 to 100 nM | 0.1 to 100 nM | 0.1 to 100 nM | – | – | – | COC1(C(=O)N2CCC(n3nnc(-c4cc(OC(CO)c5ccccn5)c5c(C#N)cnn5c4)c3C)CC2)CN(C(=O)/C=C/CN(C)C)C1 (stereo not drawn) [Example 23, (E)-6-(1-(1-(1-(4-(dimethylamino)but-2-enoyl)-3-methoxyazetidine-3-carbonyl)piperidin-4-yl)-5-methyl-1H-1,2,3-triazol-4-yl)-4-(2-hydroxy-1-(pyridin-2-yl)ethoxy)pyrazolo[1,5-a]pyridine-3-carbonitrile] | ≥ 1000 nM | ≥ 1000 nM | 250 to 1000 nM | ≥ 1000 nM
7 | 0.1 to 100 nM | 0.1 to 100 nM | 0.1 to 100 nM | 0.1 to 100 nM | 0.1 to 100 nM | – | – | – | CCC(=O)N1CCC2(CC1)CC(n1cc(-c3cc(O[C@H](CO)c4ccc(F)cn4)c4c(C#N)cnn4c3)cn1)C2 [Example 28, (S)-4-(1-(5-fluoropyridin-2-yl)-2-hydroxyethoxy)-6-(1-(7-propionyl-7-azaspiro[3.5]nonan-2-yl)-1H-pyrazol-4-yl)pyrazolo[1,5-a]pyridine-3-carbonitrile] | 100 to 250 nM | 0.1 to 100 nM | 0.1 to 100 nM | 100 to 250 nM

Row | Compound | Kd [1] | Kd [2] | Kd [3] | Kd [4] | Kd [5] | IC50 [10] | IC50 [11] | IC50 [12] | Kd [6] | Kd [7] | Kd [8] | Kd [9]
8 | C=CC(=O)N1CCC2(CC1)CC(n1nnc(-c3cc(O[C@H](C)c4ccccn4)c4c(C#N)cnn4c3)c1C)C2 [Example 3, (R)-6-(1-(7-acryloyl-7-azaspiro[3.5]nonan-2-yl)-5-methyl-1H-1,2,3-triazol-4-yl)-4-(1-(pyridin-2-yl)ethoxy)pyrazolo[1,5-a]pyridine-3-carbonitrile] | 0.1 to 100 nM | – | 0.1 to 100 nM | – | – | 0.1 to 100 nM | 0.1 to 100 nM | 0.1 to 100 nM | 0.1 to 100 nM | 0.1 to 100 nM | 0.1 to 100 nM | 100 to 250 nM
